In US7417156B2, “Orally active, antimalarial, anticancer, artemisinin-derived trioxane dimers” (Johns Hopkins University, priority 2002, dated 2008):

Legend:
SF-268 = assay: NCI 60 cell line panel screen (SRB); type: cell-based, human
M14 = assay: NCI 60 cell line panel screen (SRB); type: cell-based, human
MDA-MB-435 = assay: NCI 60 cell line panel screen (SRB); type: cell-based, human; details: MDA-MB-435 (Breast Cancer)
HS 578T = assay: NCI 60 cell line panel screen (SRB); type: cell-based, human
A549/ATCC = assay: NCI 60 cell line panel screen (SRB); type: cell-based, human
KM12 = assay: NCI 60 cell line panel screen (SRB); type: cell-based, human
NCI-H522 = assay: NCI 60 cell line panel screen (SRB); type: cell-based, human
UO-31 = assay: NCI 60 cell line panel screen (SRB); type: cell-based, human
COLO 205 = assay: NCI 60 cell line panel screen (SRB); type: cell-based, human
MOLT-4 = tested on: MOLT-4
In short: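 Sulforhodamine B staining of TCA-fixed cellular protein was the read-out, following 48 h compound exposure at 37 °C. Plates were pre-incubated 24 h before dosing, and five concentrations (routinely 10^−4 to 10^−8 molar) were tested in duplicate with time-zero and untreated controls. Values derive from test/control percentage growth relative to time-zero mass.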

CCRF-CEM = assay: NCI 60 cell line panel screen (SRB); type: cell-based, human
MALME-3M = assay: NCI 60 cell line panel screen (SRB); type: cell-based, human
MCF7 = assay: NCI 60 cell line panel screen (SRB); type: cell-based, human
TK-10 = assay: NCI 60 cell line panel screen (SRB); type: cell-based, human
U251 = assay: NCI 60 cell line panel screen (SRB); type: cell-based, human
OVCAR-5 = assay: NCI 60 cell line panel screen (SRB); type: cell-based, human
SK-MEL-2 = assay: NCI 60 cell line panel screen (SRB); type: cell-based, human
HL-60(TB) = assay: NCI 60 cell line panel screen (SRB); type: cell-based, human

CC1CCC2C(C)C(CC(COC(=O)CCC(=O)O)CC3OC4OC5(C)CCC6C(C)CCC(C3C)C46OO5)OC3OC4(C)CCC1C32OO4 (stereo not drawn) [Compound 8a, bis-trioxane primary succinate monoester]
Log10GI50 (SF-268; CNS Cancer, SF-268): −7.11 | Log10LC50 (SF-268; SF-268 (CNS Cancer), LC50: PG=−50): >−4.30 log10M | Log10TGI50 (SF-268; SF-268 (CNS Cancer), TGI: PG=0): >−4.30 log10M | Log10LC50 (M14; M14 (Melanoma), LC50: PG=−50): >−4.30 log10M | Log10TGI50 (M14; M-14 (Melanoma), TGI: PG=0): >−4.30 log10M | Log10GI50 (M14; Melanoma, M14): −6.94 | Log10LC50 (MDA-MB-435; LC50: PG=−50): >−4.30 log10M | Log10TGI50 (MDA-MB-435; TGI: PG=0): >−4.30 log10M | Log10GI50 (HS 578T; Breast Cancer, HS 578T): >−4.30 | Log10LC50 (HS 578T; HS 578T (Breast Cancer), LC50: PG=−50): >−4.30 log10M | Log10TGI50 (HS 578T; HS 578T (Breast Cancer), TGI: PG=0): >−4.30 log10M | Log10LC50 (A549/ATCC; A549/ATCC (Non-Small Cell Lung Cancer), LC50: PG=−50): >−4.30 log10M | Log10TGI50 (A549/ATCC; A549/ATCC (Non-Small Cell Lung Cancer), TGI: PG=0): >−4.30 log10M | Log10GI50 (A549/ATCC; Non-Small Cell Lung Cancer, A549/ATCC): −4.42 | Log10GI50 (KM12; Colon Cancer, KM12): <−8.30 | Log10LC50 (KM12; KM12 (Colon Cancer), LC50: PG=−50): −4.60 log10M | Log10TGI50 (KM12; KM12 (Colon Cancer), TGI: PG=0): <−8.30 log10M | Log10TGI50 (NCI-H522; NCI-H522 (Non-Small Cell Lung Cancer), TGI: PG=0): >−4.30 log10M | Log10LC50 (NCI-H522; NCI-H-522 (Non-Small Cell Lung Cancer), LC50: PG=−50): >−4.30 log10M | Log10GI50 (NCI-H522; Non-Small Cell Lung Cancer, NCI-H522): −6.16 | Log10GI50 (UO-31; Renal Cancer, UO-31): −5.46 | Log10LC50 (UO-31; UO-31 (Renal Cancer), LC50: PG=−50): >−4.30 log10M | Log10TGI50 (UO-31; UO-31 (Renal Cancer), TGI: PG=0): >−4.30 log10M | Log10LC50 (COLO 205; COLO 205 (Colon Cancer), LC50: PG=−50): 4.78 log10M | Log10TGI50 (COLO 205; COLO 205 (Colon Cancer), TGI: PG=0): −6.29 log10M | Log10GI50 (COLO 205; Colon Cancer, COLO 205): <−8.30 | concentration for cytotoxicity (percentage growth −50) (MOLT-4): greater than 10^−4 M | Log10GI50 (MOLT-4; Leukemia, MOLT-4): −8.18 | Log10LC50 (MOLT-4; MOLT-4 (Leukemia), LC50: PG=−50): >−4.30 log10M | Log10TGI50 (MOLT-4; MOLT-4 (Leukemia), TGI: PG=0): >−4.30 log10M | Log10LC50 (CCRF-CEM; CCRF-CEM (Leukemia), LC50: PG=−50): >−4.30 log10M | Log10TGI50 (CCRF-CEM; CCRF-CEM (Leukemia), TGI: PG=0): >−4.30 log10M | Log10GI50 (CCRF-CEM; Leukemia, CCRF-CEM): <−8.30 | Log10LC50 (MALME-3M; MALME-3M (Melanoma), LC50: PG=−50): >−4.30 log10M | Log10TGI50 (MALME-3M; MALME-3M (Melanoma), TGI: PG=0): −6.82 log10M | Log10GI50 (MALME-3M; Melanoma, MALME-3M): <−8.30 | Log10GI50 (MCF7; Breast Cancer, MCF7): <−8.30 | Log10LC50 (MCF7; MCF7 (Breast Cancer), LC50: PG=−50): >−4.30 log10M | Log10TGI50 (MCF7; MCF7 (Breast Cancer), TGI: PG=0): >−4.30 log10M | Log10GI50 (TK-10; Renal Cancer, TK-10): −6.92 | Log10LC50 (TK-10; TK-10 (Renal Cancer), LC50: PG=−50): >−4.30 log10M | Log10TGI50 (TK-10; TK-10 (Renal Cancer), TGI: PG=0): −4.52 log10M | Log10GI50 (U251; CNS Cancer, U251): −8.20 | Log10LC50 (U251; U251 (CNS Cancer), LC50: PG=−50): >−4.30 log10M | Log10TGI50 (U251; U251 (CNS Cancer), TGI: PG=0): >−4.30 log10M | Log10LC50 (OVCAR-5; OVCAR-5 (Ovarian Cancer), LC50: PG=−50): >−4.30 log10M | Log10TGI50 (OVCAR-5; OVCAR-5 (Ovarian Cancer), TGI: PG=0): −6.62 log10M | Log10GI50 (OVCAR-5; Ovarian Cancer, OVCAR-5): <−8.30 | Log10GI50 (SK-MEL-2; Melanoma, SK-MEL-2): −5.12 | Log10LC50 (SK-MEL-2; SK-MEL2 (Melanoma), LC50: PG=−50): >−4.30 log10M | Log10TGI50 (SK-MEL-2; SK-MEL-2 (Melanoma), TGI: PG=0): >−4.30 log10M | Log10LC50 (HL-60(TB); HL-60(TB) (Leukemia), LC50: PG=−50): >−4.30 log10M | Log10TGI50 (HL-60(TB); HL-60(TB) (Leukemia), TGI: PG=0): −7.61 log10M | Log10GI50 (HL-60(TB); Leukemia, HL-60(TB)): <−8.30
